Source: patent publication US6358885B1, “Substituted phenylheterocyclic herbicides” (Mississippi State University, priority 1992, dated 2002)

Experiments:
barley = assay: Test B preemergence/postemergence greenhouse plant response rating 0 to 10; format: in vivo, Hordeum vulgare; details: for Plant response rating, Barley: 0 to 10 scale
In short: (§1)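 Postemergence treatment of plants two to eighteen cm tall ran alongside preemergence treatment of planted seed, each using compound in a non-phytotoxic solvent.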

barnyardgrass = assay: as above; format: in vivo, Echinochloa crus-galli; details: for Plant response rating, Barnyardgrass: 0 to 10 scale
In short: as §1

chickweed [1] = assay: as above; format: in vivo, Stellaria media; details: for Plant response rating, Chickweed: 0 to 10 scale
In short: as §1

corn = assay: as above; format: in vivo, Zea mays; details: for Plant response rating, Corn: 0 to 10 scale
In short: as §1

crabgrass [2] = assay: as above; format: in vivo, Digitaria spp.; details: for Plant response rating, Crabgrass: 0 to 10 scale
In short: as §1

giant foxtail [3] = assay: as above; format: in vivo, Setaria faberii; details: 0 to 10 scale
In short: as §1

rape = assay: as above; format: in vivo, Brassica napus; details: 0 to 10 scale
In short: as §1

sorghum = assay: as above; format: in vivo, Sorghum bicolor; details: 0 to 10 scale
In short: as §1

wheat = assay: as above; format: in vivo, Triticum aestivum; details: 0 to 10 scale
In short: as §1

bedstraw = assay: Test C preemergence/postemergence greenhouse plant response rating 0 to 100; format: in vivo, Galium aparine; details: for Plant response rating, Bedstraw: 0 to 100 scale
Excerpt: (§2) The compounds evaluated in this test were formulated in a non-phytoxic solvent and applied to the soil surface before plant seedlings emerged (preemergence application), to water that covered the soil surface (flood application), and to plants that were in the one-to-four leaf stage (postemergence application). A sandy loam soil was used for the preemergence and postemergence tests, while a silt loam soil was used in the flood test. Water depth was approximately 2.5 cm for the flood test and was maintained at this level for the duration of the test. Plant species in the preemergence and postemergence tests consisted of barley (Hordeum vulgare), bedstraw (Galium aparine), blackgrass (Alopecurus myosuroides), chickweed (Stellaria media), corn (Zea mays), cotton (Gossypium hirsutum), crabgrass (Digitaria sanguinalis), downy brome (Bromus tectorum), giant foxtail (Setaria faberii), lambsquarters (Chenopodium album), morningglory (Ipomoea hederacea), pigweed ([…]), rape (Brassica napus), ryegrass (Lolium multiflorum), sorghum (Sorghum bicolor), soybean (Glycine max), speedwell (Veronica persica), sugar beet (Beta vulgaris), velvetleaf (Abutilon theophrasti), wheat (Triticum aestivum), wild buckwheat (Polygonum convolvulus), and wild oat (Avena fatua). All plant species were planted one day before application of the compound for the preemergence portion-of this test. Plantings of these species were adjusted to produce plants of appropriate size for the post-emergence portion of the test. […] All plant species were grown using normal greenhouse practices. Visual evaluations of injury expressed on treated plants, when compared to untreated controls, were recorded approximately fourteen to twenty one days after application of the test compound. […] A dash (-) response means no test result.

chickweed [4] = assay: as above; format: in vivo, Stellaria media; details: for Plant response rating, Chickweed: 0 to 100 scale
Excerpt: as §2

crabgrass [5] = assay: as above; format: in vivo, Digitaria sanguinalis; details: for Plant response rating, Crabgrass: 0 to 100 scale
Excerpt: as §2

downy brome = assay: as above; format: in vivo, Bromus tectorum; details: for Plant response rating Downy Brome: 0 to 100 scale
Excerpt: as §2

giant foxtail [6] = assay: as above; format: in vivo, Setaria faberii; details: for Plant response rating, Giant foxtail: 0 to 100 scale
Excerpt: as §2

wild buckwheat = assay: as above; format: in vivo, Polygonum convolvulus; details: for Plant response rating, Wild buckwheat: 0 to 100 scale
Excerpt: as §2

wild oat = assay: as above; format: in vivo, Avena fatua; details: for Plant response rating, Wild oat: 0 to 100 scale
Excerpt: as §2

rice = assay: Test C flood test plant response rating 0 to 100; format: in vivo, Oryza sativa; details: for Plant response rating Rice Japonica: flood test species listed under POSTEMERGENCE, 0 to 100 scale
Excerpt: as §2

duck salad = assay: Test C flood test plant response rating 0 to 100; format: in vivo, Heteranthera limosa; details: for Plant response rating Duck salad: flood test species listed under POSTEMERGENCE, 0 to 100 scale
Excerpt: as §2

[7] = POSTEMERGENCE section, flood test, Rate 4 g/ha
[8] = Rate 16 g/ha, under POSTEMERGENCE head (flood test species)

C#CCOc1cc(-c2nn3c(c2Br)CCCC3)c(F)cc1Cl [Compound 26]
Plant response rating (0 to 10 scale), Barley (barley; POSTEMERGENCE, Rate 50 g/ha): 4 | Plant response rating, Barley (barley; POSTEMERGENCE, Rate 200 g/ha): 6 | Plant response rating, Barley (barley; PREEMERGENCE, Rate 50 g/ha): 0 | Plant response rating, Barley (barley; Rate 200 g/ha, PREEMERGENCE): 1 | Plant response rating (0 to 10 scale), Barnyardgrass (barnyardgrass; POSTEMERGENCE, Rate 50 g/ha): 5 | Plant response rating, Barnyardgrass (barnyardgrass; POSTEMERGENCE, Rate 200 g/ha): 7 | Plant response rating, Barnyardgrass (barnyardgrass; PREEMERGENCE, Rate 50 g/ha): 2 | Plant response rating, Barnyardgrass (barnyardgrass; Rate 200 g/ha, PREEMERGENCE): 7 | Plant response rating (0 to 10 scale), Chickweed (chickweed [1]; POSTEMERGENCE, Rate 50 g/ha): 10 | Plant response rating, Chickweed (chickweed [1]; POSTEMERGENCE, Rate 200 g/ha): 10 | Plant response rating, Chickweed (chickweed [1]; PREEMERGENCE, Rate 50 g/ha): 10 | Plant response rating, Chickweed (chickweed [1]; Rate 200 g/ha, PREEMERGENCE): 10 | Plant response rating (0 to 10 scale), Corn (corn; POSTEMERGENCE, Rate 50 g/ha): 5 | Plant response rating, Corn (corn; POSTEMERGENCE, Rate 200 g/ha): 5 | Plant response rating, Corn (corn; PREEMERGENCE, Rate 50 g/ha): 4 | Plant response rating, Corn (corn; Rate 200 g/ha, PREEMERGENCE): 6 | Plant response rating (0 to 10 scale), Crabgrass (crabgrass [2]; POSTEMERGENCE, Rate 50 g/ha): 2 | Plant response rating, Crabgrass (crabgrass [2]; POSTEMERGENCE, Rate 200 g/ha): 6 | Plant response rating, Crabgrass (crabgrass [2]; PREEMERGENCE, Rate 50 g/ha): 5 | Plant response rating, Crabgrass (crabgrass [2]; Rate 200 g/ha, PREEMERGENCE): 9 | Plant response rating, Giant foxtail (giant foxtail [3]; POSTEMERGENCE, Rate 50 g/ha): 4 | Plant response rating, Giant foxtail (giant foxtail [3]; POSTEMERGENCE, Rate 200 g/ha): 6 | Plant response rating, Giant foxtail (giant foxtail [3]; PREEMERGENCE, Rate 50 g/ha): 6 | Plant response rating, Giant foxtail (giant foxtail [3]; Rate 200 g/ha, PREEMERGENCE): 10 | Plant response rating, Rape (rape; POSTEMERGENCE, Rate 50 g/ha): 9 | Plant response rating, Rape (rape; POSTEMERGENCE, Rate 200 g/ha): 10 | Plant response rating, Rape (rape; PREEMERGENCE, Rate 50 g/ha): 3 | Plant response rating, Rape (rape; Rate 200 g/ha, PREEMERGENCE): 10 | Plant response rating, Sorghum (sorghum; POSTEMERGENCE, Rate 50 g/ha): 5 | Plant response rating, Sorghum (sorghum; POSTEMERGENCE, Rate 200 g/ha): 6 | Plant response rating, Sorghum (sorghum; PREEMERGENCE, Rate 50 g/ha): 2 | Plant response rating, Sorghum (sorghum; Rate 200 g/ha, PREEMERGENCE): 4 | Plant response rating, Wheat (wheat; POSTEMERGENCE, Rate 50 g/ha): 4 | Plant response rating, Wheat (wheat; POSTEMERGENCE, Rate 200 g/ha): 5 | Plant response rating, Wheat (wheat; PREEMERGENCE, Rate 50 g/ha): 1 | Plant response rating, Wheat (wheat; Rate 200 g/ha, PREEMERGENCE): 2 | Plant response rating, Bedstraw (bedstraw; POSTEMERGENCE, 62 g/ha): 100 | Plant response rating, Bedstraw (bedstraw; POSTEMERGENCE, 250 g/ha): 100 | Plant response rating, Bedstraw (bedstraw; PREEMERGENCE, 62 g/ha): 100 | Plant response rating, Bedstraw (bedstraw; PREEMERGENCE, 250 g/ha): 100 | Plant response rating (0 to 100), Bedstraw (bedstraw; PREEMERGENCE, Rate 4 g/ha): 20 | Plant response rating (0 to 100), Bedstraw (bedstraw; Rate 4 g/ha, POSTEMERGENCE): 70 | Plant response rating (0 to 100), Bedstraw (bedstraw; Rate 16 g/ha, POSTEMERGENCE): 80 | Plant response rating (0 to 100), Bedstraw (bedstraw; Rate 16 g/ha, PREEMERGENCE): 60 | Plant response rating, Chickweed (chickweed [4]; POSTEMERGENCE, 62 g/ha): 100 | Plant response rating, Chickweed (chickweed [4]; POSTEMERGENCE, 250 g/ha): 100 | Plant response rating, Chickweed (chickweed [4]; PREEMERGENCE, 62 g/ha): 100 | Plant response rating, Chickweed (chickweed [4]; PREEMERGENCE, 250 g/ha): 100 | Plant response rating (0 to 100), Chickweed (chickweed [4]; PREEMERGENCE, Rate 4 g/ha): 50 | Plant response rating (0 to 100), Chickweed (chickweed [4]; Rate 4 g/ha, POSTEMERGENCE): 50 | Plant response rating (0 to 100), Chickweed (chickweed [4]; Rate 16 g/ha, POSTEMERGENCE): 80 | Plant response rating (0 to 100), Chickweed (chickweed [4]; Rate 16 g/ha, PREEMERGENCE): 50 | Plant response rating, Crabgrass (crabgrass [5]; POSTEMERGENCE, 62 g/ha): 20 | Plant response rating, Crabgrass (crabgrass [5]; POSTEMERGENCE, 250 g/ha): 40 | Plant response rating (0 to 100), Crabgrass (crabgrass [5]; POSTEMERGENCE, Rate 4 g/ha): 0 | Plant response rating, Crabgrass (crabgrass [5]; PREEMERGENCE, 62 g/ha): 20 | Plant response rating, Crabgrass (crabgrass [5]; PREEMERGENCE, 250 g/ha): 60 | Plant response rating (0 to 100), Crabgrass (crabgrass [5]; PREEMERGENCE, Rate 4 g/ha): 0 | Plant response rating (0 to 100), Crabgrass (crabgrass [5]; Rate 16 g/ha, POSTEMERGENCE): 0 | Plant response rating (0 to 100), Crabgrass (crabgrass [5]; Rate 16 g/ha, PREEMERGENCE): 0 | Plant response rating Downy Brome (downy brome; POSTEMERGENCE, 62 g/ha): 50 | Plant response rating Downy Brome (downy brome; POSTEMERGENCE, 250 g/ha): 70 | Plant response rating (0 to 100), Downy Brome (downy brome; POSTEMERGENCE, Rate 4 g/ha): 20 | Plant response rating Downy Brome (downy brome; PREEMERGENCE, 62 g/ha): 0 | Plant response rating Downy Brome (downy brome; PREEMERGENCE, 250 g/ha): 20 | Plant response rating (0 to 100), Downy Brome (downy brome; PREEMERGENCE, Rate 4 g/ha): 0 | Plant response rating (0 to 100), Downy Brome (downy brome; Rate 16 g/ha, POSTEMERGENCE): 40 | Plant response rating (0 to 100), Downy Brome (downy brome; Rate 16 g/ha, PREEMERGENCE): 0 | Plant response rating, Giant foxtail (giant foxtail [6]; POSTEMERGENCE, 62 g/ha): 50 | Plant response rating, Giant foxtail (giant foxtail [6]; POSTEMERGENCE, 250 g/ha): 70 | Plant response rating (0 to 100), Giant foxtail (giant foxtail [6]; POSTEMERGENCE, Rate 4 g/ha): 0 | Plant response rating, Giant foxtail (giant foxtail [6]; PREEMERGENCE, 62 g/ha): 70 | Plant response rating, Giant foxtail (giant foxtail [6]; PREEMERGENCE, 250 g/ha): 100 | Plant response rating (0 to 100), Giant foxtail (giant foxtail [6]; PREEMERGENCE, Rate 4 g/ha): 0 | Plant response rating (0 to 100), Giant foxtail (giant foxtail [6]; Rate 16 g/ha, POSTEMERGENCE): 40 | Plant response rating (0 to 100), Giant foxtail (giant foxtail [6]; Rate 16 g/ha, PREEMERGENCE): 30 | Plant response rating, Wild buckwheat (wild buckwheat; POSTEMERGENCE, 62 g/ha): 100 | Plant response rating, Wild buckwheat (wild buckwheat; POSTEMERGENCE, 250 g/ha): 100 | Plant response rating (0 to 100), Wild buckwheat (wild buckwheat; POSTEMERGENCE, Rate 4 g/ha): 50 | Plant response rating, Wild buckwheat (wild buckwheat; PREEMERGENCE, 250 g/ha): 100 | Plant response rating (0 to 100), Wild buckwheat (wild buckwheat; PREEMERGENCE, Rate 4 g/ha): 20 | Plant response rating (0 to 100), Wild buckwheat (wild buckwheat; Rate 16 g/ha, POSTEMERGENCE): 80 | Plant response rating (0 to 100), Wild buckwheat (wild buckwheat; Rate 16 g/ha, PREEMERGENCE): 80 | Plant response rating, Wild oat (wild oat; POSTEMERGENCE, 62 g/ha): 30 | Plant response rating, Wild oat (wild oat; POSTEMERGENCE, 250 g/ha): 50 | Plant response rating (0 to 100), Wild oat (wild oat; POSTEMERGENCE, Rate 4 g/ha): 20 | Plant response rating, Wild oat (wild oat; PREEMERGENCE, 250 g/ha): 30 | Plant response rating (0 to 100), Wild oat (wild oat; PREEMERGENCE, Rate 4 g/ha): 0 | Plant response rating (0 to 100), Wild oat (wild oat; Rate 16 g/ha, POSTEMERGENCE): 30 | Plant response rating (0 to 100), Wild oat (wild oat; Rate 16 g/ha, PREEMERGENCE): 0 | Plant response rating (0 to 100), Rice Japonica (rice; [7]): 40 | Plant response rating (0 to 100), Rice Japonica (rice; [8]): 65 | Plant response rating Rice Japonica (rice; 62 g/ha): 80 | Plant response rating Rice Japonica (rice; 250 g/ha): 85 | Plant response rating (0 to 100), Duck salad (duck salad; [7]): 55 | Plant response rating (0 to 100), Duck salad (duck salad; [8]): 60 | Plant response rating Duck salad (duck salad; 62 g/ha): 70 | Plant response rating Duck salad (duck salad; 250 g/ha): 90
